US12534444B2, “Treatment of cancer/inhibition of metastasis” (Celex Oncology Innovations Limited, priority 2010, dated 2026)

Key:
Mat-LyLu cells = assay: Cell viability assay (trypan blue); format: cell-based, rat
Protocol: (§1) Cells were seeded at a density of 5×10^4 cells/ml in 35 mm Falcon tissue culture dishes. After treatment with a given drug, the medium was removed and replaced with 800 μl of growth medium and 200 μl 0.4% trypan blue (Sigma, Dorset, UK) and incubated for 10 minutes in the incubator. The trypan blue was removed and the cells were washed once with 3 ml growth medium. For each treatment, cells from 30 random fields of view were counted under 100× magnification. The number of dead cells, stained blue, was counted in each field of view. The data were expressed as percentages of living cells out of the total number of cells in given fields of view. The percentages were averaged and differences between control and treatment were compared from at least three independent experiments.
(§2) With the exception of single cell adhesion tests, which are discussed in the following paragraph, experiments were carried out under either; • (i) normal normoxic conditions ([…], 5% carbon dioxide), or • (ii) following 24 hours hypoxic pre-treatment (2% O2, 5% CO2, 93% N2) continued during the assays.

MDA-MB-231 cells [1] = assay: Cell viability assay (trypan blue); format: cell-based, human; conditions: Normoxia, 48 hours
Protocol: as §1, §2

MDA-MB-231 cells [2] = assay: Cell growth (proliferation) assay (MTT); format: cell-based, human; conditions: for PROLIFERATION (24 hours) / growth (number of cells): Normoxia; for growth (number of cells): 48 hours
Protocol: Cells were plated at 2×10^4 cells/ml in 24-well plates (Becton-Dickinson) and allowed to settle overnight. The cells were then treated for the required time of incubation (24 hours+), with medium changes every 24 hours. At the end of the treatment, the medium was removed, and this was followed by the colorimetric 3-[4,5-dimethylthiazol-2-yl]-2,5-diphenyltetrazolium bromide (MTT) assay (Grimes et al., 1995). Briefly, 0.1 ml MTT (5 mg/ml made up in the growth medium) and 0.4 ml growth medium was added in each well and the plate was incubated for 3-4 hours at 37° C. The medium was then removed from the chambers and replaced with 0.5 ml dimethyl sulfoxide (DMSO) and 0.063 ml glycine buffer (0.1 M glycine and 0.1 M NaCl; pH 10.5). Absorbance at 570 nm was determined 15 minutes after the addition of the glycine buffer. Results were calculated as means of nine repeats of each of the treatment vs. control spectrophotometer readings from individual invasion wells.
as §2

MDA-MB-231 cells [3] = assay: Invasion assay (Matrigel Transwell); format: cell-based, human
Text: This assay is an extension of the transverse migration assay described above. To “invade”, the cells need both (i) to move as in the transverse migration assay and (ii) secrete a proteolytic enzyme to digest their surroundings. The ability of cells to invade neighbouring tissues by enzyme secretion was therefore assessed by using a layer of Matrigel™ (BD Biosciences) spread across the porous membrane of a Transwell® insert.
FIG. 7 is a schematic side sectional view of an invasion chamber 701 having a Transwell® insert 702 separating the chamber into upper 703 and lower 704 sections. The insert 702 has a migration filter membrane 705 in its base with 8 μm pores 706 extending therethrough. A layer 707 of Matrigel™ is shown coating the filter membrane 705.
Cells 708 were plated at a density of 2×10^4/ml onto the Matrigel™ layer 707 in 24-well plates (Becton-Dickinson) according to the manufacturers' instructions. 50 μl Matrigel™ was seeded at a 1:7 dilution (10 mg/ml stock) onto the inserts and left overnight. Prior to seeding with the cells the Matrigel™ was rehydrated using medium with no additions. This medium was removed prior to seeding the cells.
Cells were plated in a 1-5% FBS chemotactic gradient overnight (12 hours). The nutrient concentration in the medium 709 in the upper section 703 of the chamber was less than the concentration of nutrient in the medium 710 in the lower section 704 to induced movement of the cells through the Matrigel™ layer 707 and through the pores 706 to the underside of the filter membrane 705. At the end of each assay, non-invaded/non-migrated cells were removed from the upper surface of the insert 702 with two different swabs.
The number of cells invading to the underside of the insert 702 was determined using crystal violet staining. Invaded cells were fixed for 15 minutes with ice-cold methanol. Then 0.5% crystal violet (in 25% methanol) was added for 15 minutes. The inserts were swabbed again and then washed in water and allowed to dry. Cells were then counted using twelve separate fields of view per insert (×200 magnification). If the difference in the average number of cells invading the two control inserts was more than 40%, the experiment was rejected.
as §2

[4] = Hypoxia, 5 μM, 72 hours pretreatment

COc1ccccc1OCC(O)CN1CCN(CC(=O)Nc2c(C)cccc2C)CC1 (stereo not drawn) [ranolazine]
CELL VIABILITY (Mat-LyLu cells; Hypoxia, 20 μM, 24 hours): no effect | CELL VIABILITY (Mat-LyLu cells; Hypoxia, 50 μM, 24 hours): no effect | CELL VIABILITY (Mat-LyLu cells; Hypoxia, 300 μM, 24 hours): no effect | CELL VIABILITY (Mat-LyLu cells; Normoxia, 20 μM, 24 hours): no effect | CELL VIABILITY (Mat-LyLu cells; Normoxia, 50 μM, 24 hours): no effect | CELL VIABILITY (Mat-LyLu cells; Normoxia, 300 μM, 24 hours): no effect | CELL VIABILITY (MDA-MB-231 cells [1]; 1 μM): no effect | CELL VIABILITY (MDA-MB-231 cells [1]; 10 μM): no effect | CELL VIABILITY (MDA-MB-231 cells [1]; 100 μM): no effect | growth (MDA-MB-231 cells [2]; Hypoxia, same concentrations (1 μM, 10 μM and 100 μM), results not shown): did not affect the growth | PROLIFERATION (24 hours) (MDA-MB-231 cells [2]; 1 μM): no significant difference | PROLIFERATION (24 hours) (MDA-MB-231 cells [2]; 1 μM, listed as RANOLAZINE): no effect | growth (number of cells) (MDA-MB-231 cells [2]; 1 μM): no statistically significant difference | PROLIFERATION (24 hours) (MDA-MB-231 cells [2]; 10 μM): no significant difference | PROLIFERATION (24 hours) (MDA-MB-231 cells [2]; 10 μM, listed as RANOLAZINE): no effect | growth (number of cells) (MDA-MB-231 cells [2]; 10 μM): no statistically significant difference | PROLIFERATION (24 hours) (MDA-MB-231 cells [2]; 100 μM): no significant difference | PROLIFERATION (24 hours) (MDA-MB-231 cells [2]; 100 μM, listed as RANOLAZINE): no effect | growth (number of cells) (MDA-MB-231 cells [2]; 100 μM): no statistically significant difference | INVASIVENESS (no pretreatment) (MDA-MB-231 cells [3]; Hypoxia, 5 μM): not statistically significant | INVASIVENESS (pretreatment) (MDA-MB-231 cells [3]; [4]): very significant reduction | INVASIVENESS (pretreatment) (MDA-MB-231 cells [3]; Hypoxia, 5 μM, 72 hours pretreatment, listed as RANOLAZINE): decreased | INVASIVENESS (no pretreatment) (MDA-MB-231 cells [3]; Hypoxia, 5 μM, listed as RANOLAZINE): no benefit | INVASIVENESS (no pretreatment) (MDA-MB-231 cells [3]; Hypoxia, 10 μM): not statistically significant | INVASIVENESS (no pretreatment) (MDA-MB-231 cells [3]; Hypoxia, 10 μM, listed as RANOLAZINE): decreased | INVASIVENESS (no pretreatment) (MDA-MB-231 cells [3]; Hypoxia, 20 μM): reduced the migration of the cells | INVASIVENESS (no pretreatment) (MDA-MB-231 cells [3]; Hypoxia, 20 μM, listed as RANOLAZINE): no benefit | INVASIVENESS (no pretreatment) (MDA-MB-231 cells [3]; Hypoxia, 25 μM): less invasive than untreated cells in a statistically significant way | INVASIVENESS (pretreatment) (MDA-MB-231 cells [3]; Hypoxia, 25 μM, 48 hours): decreased | INVASIVENESS (pretreatment) (MDA-MB-231 cells [3]; Hypoxia, 25 μM, 72 hours): decreased | INVASIVENESS (no pretreatment) (MDA-MB-231 cells [3]; Hypoxia, 25 μM, listed as RANOLAZINE): decreased | invasiveness (pre-treatment) (MDA-MB-231 cells [3]; Hypoxia, 25 μM, pre-treated for 24 hours before the 24 hour long assay): significantly less invasive | invasiveness (pre-treatment) (MDA-MB-231 cells [3]; Hypoxia, 25 μM, pre-treated for 48 hours before the 24 hour long assay): significantly less invasive | INVASIVENESS (no pretreatment) (MDA-MB-231 cells [3]; Hypoxia, 50 μM): reduced the migration of the cells | INVASIVENESS (no pretreatment) (MDA-MB-231 cells [3]; Hypoxia, 50 μM, listed as RANOLAZINE): decreased | INVASIVENESS (no pretreatment) (MDA-MB-231 cells [3]; Hypoxia, 300 μM): reduced the migration of the cells | INVASIVENESS (no pretreatment) (MDA-MB-231 cells [3]; Hypoxia, 300 μM, listed as RANOLAZINE): decreased | INVASIVENESS (no pretreatment) (MDA-MB-231 cells [3]; Normoxia, 10 μM): reduced the migration of the cells | INVASIVENESS (no pretreatment) (MDA-MB-231 cells [3]; Normoxia, 10 μM, listed as RANOLAZINE): decreased | INVASIVENESS (no pretreatment) (MDA-MB-231 cells [3]; Normoxia, 20 μM): reduced the migration of the cells | INVASIVENESS (no pretreatment) (MDA-MB-231 cells [3]; Normoxia, 20 μM, listed as RANOLAZINE): decreased | INVASIVENESS (no pretreatment) (MDA-MB-231 cells [3]; Normoxia, 50 μM): not statistically significant | INVASIVENESS (no pretreatment) (MDA-MB-231 cells [3]; Normoxia, 50 μM, listed as RANOLAZINE): no effect | INVASIVENESS (no pretreatment) (MDA-MB-231 cells [3]; Normoxia, 300 μM): reduced the migration of the cells | INVASIVENESS (no pretreatment) (MDA-MB-231 cells [3]; Normoxia, 300 μM, listed as RANOLAZINE): decreased | potency on invasiveness compared with positive control TTX (MDA-MB-231 cells [3]; higher concentrations tested, TTX 10 μmol): more potent than the toxin (TTX)

Nc1nc2ccc(OC(F)(F)F)cc2s1 [riluzole]
CELL VIABILITY (Mat-LyLu cells; Hypoxia, 1 μM): no effect | CELL VIABILITY (Mat-LyLu cells; Hypoxia, 10 μM, 24 h): no effect | CELL VIABILITY (Mat-LyLu cells; Hypoxia, 10 μM, 24 h, listed as RILUZOLE): cell death | CELL VIABILITY (Mat-LyLu cells; Hypoxia, 30 μM, 24 h): no effect | CELL VIABILITY (Mat-LyLu cells; Hypoxia, 30 μM, 24 h, listed as RILUZOLE): cell death | CELL VIABILITY (Mat-LyLu cells; Hypoxia, 100 μM, 24 h): no effect | CELL VIABILITY (Mat-LyLu cells; Hypoxia, 100 μM, 24 h, listed as RILUZOLE): cell death | CELL VIABILITY (Mat-LyLu cells; Normoxia, 10 μM, 24 h): no effect | CELL VIABILITY (Mat-LyLu cells; Normoxia, 30 μM, 24 h): no effect | CELL VIABILITY (Mat-LyLu cells; Normoxia, 100 μM, 24 h): no effect | CELL VIABILITY (MDA-MB-231 cells [1]; 1 μM): no effect | CELL VIABILITY (MDA-MB-231 cells [1]; 10 μM): decreased the cell viability | CELL VIABILITY (MDA-MB-231 cells [1]; 10 μM, listed as RILUZOLE): cell death | CELL VIABILITY (MDA-MB-231 cells [1]; 100 μM): decreased the cell viability | CELL VIABILITY (MDA-MB-231 cells [1]; 100 μM, listed as RILUZOLE): cell death | PROLIFERATION (24 hours) (MDA-MB-231 cells [2]; 1 μM): no effect | PROLIFERATION (24 hours) (MDA-MB-231 cells [2]; 10 μM): no effect | PROLIFERATION (24 hours) (MDA-MB-231 cells [2]; 100 μM): reduced the proliferation of the cells in a statistically significant way | PROLIFERATION (24 hours) (MDA-MB-231 cells [2]; 100 μM, listed as RILUZOLE): tail off | growth (number of cells) (MDA-MB-231 cells [2]; 100 μM): reduced the proliferation of the cells in a statistically significant way | INVASIVENESS (no pretreatment) (MDA-MB-231 cells [3]; Hypoxia, 1 μM): decreased | INVASIVENESS (pretreatment) (MDA-MB-231 cells [3]; [4]): significantly inhibited invasiveness | INVASIVENESS (pretreatment) (MDA-MB-231 cells [3]; Hypoxia, 5 μM, 72 hours pretreatment, listed as RILUZOLE): decreased | INVASIVENESS (no pretreatment) (MDA-MB-231 cells [3]; Hypoxia, 5 μM, listed as RILUZOLE): decreased | INVASIVENESS (no pretreatment) (MDA-MB-231 cells [3]; Hypoxia, 5 μM, listed as Riluzole): significantly inhibited invasiveness | INVASIVENESS (no pretreatment) (MDA-MB-231 cells [3]; Normoxia, 1 μM): decreased
